# According to US20250188084A1, “COMPOUNDS AND METHODS FOR MODULATING CDK9 ACTIVITY” (KRONOS BIO, INC., priority 2020, published 2025):
# Experiments:
# CDK9 [1] = target: T1, CDK9 (Homo sapiens, UniProt P50750); experiment: CDK9 degradation by HiBit assay, NCIH211 cells; format: cell-based; conditions: NCIH211 cells with endogenously tagged N-terminal CDK9-HiBit, 24 hours incubation; read-out: HiBit-NCIH211.2 DC50
# T1 construct: NCIH211 cells with endogenously tagged N-terminal CDK9-HiBit; endogenous in cells; host or cells: NCIH211 cells (endogenous CDK9 locus tagged with HiBit)
# T1 sequence (P50750 whole entry): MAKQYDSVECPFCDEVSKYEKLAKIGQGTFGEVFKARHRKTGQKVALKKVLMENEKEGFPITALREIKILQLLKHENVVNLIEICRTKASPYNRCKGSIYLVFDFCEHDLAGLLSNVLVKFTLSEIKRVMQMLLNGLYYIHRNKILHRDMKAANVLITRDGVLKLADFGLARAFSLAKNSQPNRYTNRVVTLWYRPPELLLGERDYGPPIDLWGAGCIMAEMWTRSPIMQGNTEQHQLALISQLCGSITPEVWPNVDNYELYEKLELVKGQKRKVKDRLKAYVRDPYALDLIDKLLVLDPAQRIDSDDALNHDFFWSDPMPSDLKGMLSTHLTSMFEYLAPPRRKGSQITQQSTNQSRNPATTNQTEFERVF
# T1 sequence (O60563 whole entry partner): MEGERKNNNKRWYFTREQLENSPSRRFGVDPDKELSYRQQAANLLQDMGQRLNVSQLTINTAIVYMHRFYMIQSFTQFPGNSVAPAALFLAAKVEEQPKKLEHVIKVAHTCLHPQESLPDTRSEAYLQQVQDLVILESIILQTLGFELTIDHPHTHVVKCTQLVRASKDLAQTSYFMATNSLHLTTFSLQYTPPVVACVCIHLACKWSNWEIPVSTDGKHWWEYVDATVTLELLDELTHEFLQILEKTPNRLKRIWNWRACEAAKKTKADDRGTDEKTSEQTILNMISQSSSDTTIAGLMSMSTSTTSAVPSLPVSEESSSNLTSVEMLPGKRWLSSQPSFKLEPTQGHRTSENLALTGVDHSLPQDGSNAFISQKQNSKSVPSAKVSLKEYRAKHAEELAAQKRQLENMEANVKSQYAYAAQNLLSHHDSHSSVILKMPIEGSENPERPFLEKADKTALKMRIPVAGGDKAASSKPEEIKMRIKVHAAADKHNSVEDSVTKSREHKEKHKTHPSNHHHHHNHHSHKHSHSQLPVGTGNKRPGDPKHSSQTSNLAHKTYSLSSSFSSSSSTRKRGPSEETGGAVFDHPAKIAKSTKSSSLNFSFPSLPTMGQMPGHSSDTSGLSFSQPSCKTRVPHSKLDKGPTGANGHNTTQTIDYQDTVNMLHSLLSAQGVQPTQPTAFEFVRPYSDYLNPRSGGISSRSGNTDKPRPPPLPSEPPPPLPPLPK
# Method: (§1) Exemplary compounds of the invention were tested for degradation of CDK9. The compounds were tested in 10-dose DC50 duplicate mode with a 3-fold serial dilution starting at 10 μM by HiBit assay (Promega, Inc) as a direct measurement of CDK9 presence, with incubation time of 24 hours using either NCIH211 cells with endogenously tagged N-terminal CDK9-HiBit or NCIH1048 cells with endogenously tagged N-terminal CDK9-HiBit. A control compound (THAL-SNS-032, CAS 2139287-33-3) was tested in 10-dose DC50 mode with 3-fold serial dilution starting at 10 μM. Data was normalized to positive (medium only) and negative (cells with no treatment) controls and curve fits were analyzed with CDK9 as % response vs. log [compound concentration] using a 4-parameter logistic model by GraphPad software. For Table 2: A is <100, B is <1000 C is <10,000, D is >10,000 and ND is Not Determined.
# CDK9 [2] = target: T1, CDK9; experiment: CDK9 degradation by HiBit assay, NCIH1048 cells; format: cell-based; conditions: NCIH1048 cells with endogenously tagged N-terminal CDK9-HiBit, 24 hours incubation; read-out: HiBit-NCIH1048.3 DC50
# Method: as §1
DC50 (CDK9 [1]) [nM],DC50 (CDK9 [2]) [nM],Structure (SMILES)
< 100,< 100,"C/C=C(\CC)c1cc(N[C@H]2CC[C@H](NCC(=O)N3CCN(CCCCNc4cccc5c4C(=O)N(C4CCC(=O)NC4=O)C5=O)CC3)C2)n2ncc(Cl)c2n1 (stereo partly drawn) [Compound 59.0, 4-[4-[4-[2-[[(1S,3S)-3-[[3-chloro-5-[(E)-1-ethylprop-1-enyl]pyrazolo[1,5-a]pyrimidin-7-yl]amino]cyclopentyl]amino]acetyl]piperazin-1-yl]butylamino]-2-(2,6-dioxo-3-piperidyl)isoindoline-1,3-dione]"
< 1000,< 100,CCC(CC)c1cc(N[C@H]2CC[C@H](NCC(=O)N3CCN(CCCNc4cccc5c4C(=O)N(C4CCC(=O)NC4=O)C5=O)CC3)C2)n2nccc2n1 (stereo partly shown) [Compound 48.0]
< 10000,< 10000,CCC(CC)c1cc(N[C@H]2CC[C@H](NCC(=O)NCCCc3cn(CCOCCOCCOCCOCCOc4cc(-c5scnc5C)ccc4CNC(=O)[C@@H]4C[C@@H](O)CN4C(=O)[C@H](C(C)C)N4Cc5ccccc5C4=O)nn3)C2)n2ncc(Cl)c2n1 [Compound 54.0]
< 100,< 100,"C/C=C(\CC)c1cc(N[C@H]2CC[C@H](NCC(=O)N3CCN(CCCNc4cccc5c4C(=O)N(C4CCC(=O)NC4=O)C5=O)CC3)C2)n2ncc(Cl)c2n1 (stereo partly drawn) [Compound 57.0, 4-[3-[4-[2-[[(1S,3S)-3-[[3-chloro-5-[(E)-1-ethylprop-1-enyl]pyrazolo[1,5-a]pyrimidin-7-yl]amino]cyclopentyl]amino]acetyl]piperazin-1-yl]propylamino]-2-(2,6-dioxo-3-piperidyl)isoindoline-1,3-dione]"
< 10000,< 10000,CCC(CC)c1cc(N[C@H]2CC[C@H](NCC(=O)NCCCc3cn(CCOCCOCCOCCOc4cc(-c5scnc5C)ccc4CNC(=O)[C@@H]4C[C@@H](O)CN4C(=O)[C@H](C(C)C)N4Cc5ccccc5C4=O)nn3)C2)n2ncc(Cl)c2n1 [Compound 53.0]
